Measured values reported in ChEMBL document CHEMBL2303647, “Data associated with the publication PLoS ONE, 8(3), e57888, (2013) PMID: 23505445. Compounds: GSK PKIS; Assays: NIH NCATS”.

Columns and labels:
[1] = target: Luciferin 4-monooxygenase (Photinus pyralis, UniProt P08659)
Description: GSK_PKIS: Inhibition of Firefly Luciferase (Data from PubChem: AID 652016) [NIH NCATS]

[2] = target: T1, Coelenterazine h 2-monooxygenase (Renilla reniformis, UniProt P27652)
T1 sequence (P27652 whole entry): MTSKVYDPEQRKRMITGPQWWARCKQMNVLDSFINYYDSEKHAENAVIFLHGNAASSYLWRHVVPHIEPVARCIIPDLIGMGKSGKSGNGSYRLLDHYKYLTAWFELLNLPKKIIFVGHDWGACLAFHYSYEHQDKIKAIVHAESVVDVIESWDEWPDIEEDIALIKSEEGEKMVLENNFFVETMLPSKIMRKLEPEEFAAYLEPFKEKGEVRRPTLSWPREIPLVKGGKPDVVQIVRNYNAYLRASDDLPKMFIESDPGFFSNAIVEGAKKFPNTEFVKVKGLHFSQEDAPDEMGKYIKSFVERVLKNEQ
Description: GSK_PKIS: Inhibition of Sea Pansy Luciferase (Data from PubChem: AID 652015) [NIH NCATS]

Luciferin 4-monooxygenase, sequence (P08659 whole entry): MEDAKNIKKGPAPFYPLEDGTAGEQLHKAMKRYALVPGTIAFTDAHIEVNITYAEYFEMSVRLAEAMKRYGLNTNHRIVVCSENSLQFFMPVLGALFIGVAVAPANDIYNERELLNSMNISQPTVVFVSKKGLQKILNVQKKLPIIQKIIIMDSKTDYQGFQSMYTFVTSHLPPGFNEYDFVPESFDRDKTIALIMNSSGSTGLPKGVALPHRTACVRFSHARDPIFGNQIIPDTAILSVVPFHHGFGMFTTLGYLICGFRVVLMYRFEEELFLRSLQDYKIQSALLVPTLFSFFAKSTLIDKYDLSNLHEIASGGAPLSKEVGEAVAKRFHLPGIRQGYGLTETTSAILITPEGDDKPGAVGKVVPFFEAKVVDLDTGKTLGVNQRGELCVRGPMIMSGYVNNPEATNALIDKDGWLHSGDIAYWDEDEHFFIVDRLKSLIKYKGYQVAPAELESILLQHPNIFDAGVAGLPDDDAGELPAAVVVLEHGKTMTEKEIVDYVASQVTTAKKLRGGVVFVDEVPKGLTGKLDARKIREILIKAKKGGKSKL

Row | AC50 ([1]; read-out: AC50) [µM] | AC50 ([2]; read-out: AC50) [µM] | Compound | AC50 [2] | AC50 [1]
1 | 16.3 | 23.1 | CS(=O)(=O)Nc1ccc(N/C=C2\C(=O)Nc3ccccc32)cc1 [GW278681X] |  | 
2 | 4.11 |  | O=C1Nc2ccccc2/C1=C/Nc1ccc2[nH]c(=O)[nH]c2c1 [GW284408X] | Phenotype: Inactive; Curve_Description: None | 
3 |  | 29.1 | CCn1c(-c2nonc2N)nc2c(C#CC(C)(C)O)nc(OC[C@@H](N)c3ccccc3)cc21 [GSK-938890A] |  | Phenotype: Inactive; Curve_Description: None
4 |  |  | CS(=O)(=O)CCNCc1cc(-c2cc3c(Nc4ccc(OCc5cccc(F)c5)c(Cl)c4)ncnc3s2)cs1 [GSK-300014A] | Phenotype: Activator; Curve_Description: None | Phenotype: Inactive; Curve_Description: None
5 |  |  | Cl.c1ccc(Oc2ccc(Nc3ncc(-c4ccccc4)o3)cc2)cc1 [GW641155A] | Phenotype: Inactive; Curve_Description: None | Phenotype: Inactive; Curve_Description: None
6 |  |  | Cc1nn(C)c2cc(N(C)c3ccnc(Nc4cccc(S(N)(=O)=O)c4)n3)ccc12.Cl [GW770220A] | Phenotype: Inactive; Curve_Description: None | Phenotype: Inactive; Curve_Description: None
7 |  |  | COc1ccc2cc(-c3c(-c4ccncc4)nc(-c4ccc(S(C)(=O)=O)cc4C)n3C)ccc2c1 | Phenotype: Inactive; Curve_Description: None | Phenotype: Inactive; Curve_Description: None
8 |  | 20.6 | C[C@@H](Oc1cc(-n2cnc3ccc(OC4CCN(C)CC4)cc32)sc1C(N)=O)c1ccccc1Cl [GSK-579289A] |  | Phenotype: Inactive; Curve_Description: None
9 | 20.6 |  | CS(=O)(=O)Nc1ccc(-c2ccc3c(NC(=O)C4CC4)n[nH]c3c2)cc1 | Phenotype: Inactive; Curve_Description: None | 
10 |  |  | CCn1c(-c2nonc2N)nc2cnc(Oc3cccc(NC(=O)c4ccc(OCCN5CCOCC5)cc4)c3)cc21.Cl [GSK-269962B] | Phenotype: Inactive; Curve_Description: None | Phenotype: Inactive; Curve_Description: None
11 | 16.3 |  | O=C(Nc1n[nH]c2cc(-c3ccc(F)cc3)ccc12)C1CC1 | Phenotype: Inactive; Curve_Description: None | 
12 |  |  | Nc1nccc(-c2c(-c3ccc(F)cc3)ncn2C2CCC(O)CC2)n1 (configuration not stated) | Phenotype: Inactive; Curve_Description: None | Phenotype: Inactive; Curve_Description: None
13 |  |  | N#Cc1ccc(Oc2nccc(-c3c(-c4ccc(F)cc4)ncn3C3CCNCC3)n2)cc1 | Phenotype: Inactive; Curve_Description: None | Phenotype: Inactive; Curve_Description: None
14 | 18.3 |  | O=C(Nc1n[nH]c2cc(-c3ccccc3)ccc12)C1CC1 | Phenotype: Inactive; Curve_Description: None | 
15 | 20.6 |  | CN(c1ccc(NC(=O)NCCN2CCOCC2)cc1)c1ccnc(Nc2ccc(CS(C)(=O)=O)cc2)n1.Cl [GW830365A] | Phenotype: Inactive; Curve_Description: None | 
16 |  |  | Nc1nonc1-c1nc2cnccc2n1C1CC1 | Phenotype: Inactive; Curve_Description: None | Phenotype: Inactive; Curve_Description: None
17 |  |  | Cl.NCc1ccc(-c2nc(-c3ccc(Cl)c(O)c3)c(-c3ccncc3)[nH]2)cc1 | Phenotype: Inactive; Curve_Description: None | Phenotype: Inactive; Curve_Description: None
18 |  |  | CCS(=O)(=O)c1ccc(OC)c(Nc2ncc(-c3cccc(F)c3)o2)c1 [GW621970X] | Phenotype: Inactive; Curve_Description: None | Phenotype: Inactive; Curve_Description: None
19 |  |  | CCOc1nccc2c1nc(-c1nonc1N)n2CC | Phenotype: Inactive; Curve_Description: None | Phenotype: Inactive; Curve_Description: None
20 | 13 |  | CS(=O)(=O)CCNCc1coc(-c2ccc3ncnc(Nc4ccc(OCc5ccccc5)cc4)c3c2)c1.Cl [GW566221A] | Phenotype: Inactive; Curve_Description: None | 
21 | 18.3 |  | CN(c1ccc(NC(=O)Nc2ccc(OC(F)(F)F)cc2)cc1)c1ccnc(Nc2cccc(S(N)(=O)=O)c2)n1 [GW806742X] | Phenotype: Inactive; Curve_Description: None | 
22 | 41.1 | 8.19 | COc1ccccc1-c1cc(/C=C2\C(=O)Nc3ncc(Br)cc32)cc(Br)c1O [GW442130X] |  | 
23 |  |  | CCCNc1cccc(-n2ncc3c(N/N=C/c4ccncc4)ncnc32)c1 [GW794607X] | Phenotype: Inactive; Curve_Description: None | Phenotype: Inactive; Curve_Description: None
24 |  |  | CS(=O)(=O)CCNCc1nc(-c2ccc3ncnc(Nc4ccc(F)c(Cl)c4)c3c2)cs1.Cl [GW461104A] | Phenotype: Inactive; Curve_Description: None | Phenotype: Inactive; Curve_Description: None

Row | AC50 ([1]; read-out: AC50) [µM] | AC50 ([2]; read-out: AC50) [µM] | Compound | AC50 [2] | AC50 [1]
25 |  | 29.1 | Cc1cc(Cl)cc2c1NC(=O)C2=NNc1ccc(S(N)(=O)=O)cc1 [GW279320X] |  | Phenotype: Inactive; Curve_Description: None
26 |  |  | CCn1c(-c2nonc2N)nc2ccccc21 [GW549034X] | Phenotype: Inactive; Curve_Description: None | Phenotype: Inactive; Curve_Description: None
27 |  |  | CNC(=O)c1sc(-n2cnc3cc(OC)c(OC)cc32)cc1OCc1ccccc1C(F)(F)F [GSK-1030061A] | Phenotype: Inactive; Curve_Description: None | Phenotype: Inactive; Curve_Description: None
28 |  | 18.3 | CCCN1CCC(c2ccc(Nc3nc(Nc4cc(F)ccc4C(N)=O)c4cc[nH]c4n3)c(OC)c2)CC1 [GSK-1326255A] |  | Phenotype: Inactive; Curve_Description: None
29 |  |  | COc1cc(N2CCN(C(C)C)CC2)ccc1Nc1nc(Nc2cccc(F)c2C(=O)O)c2cc[nH]c2n1 [GSK-1819799A] | Phenotype: Inactive; Curve_Description: None | Phenotype: Inactive; Curve_Description: None
30 |  |  | N#Cc1c(NC(=O)CN2CCOCC2)sc2c1CCCC2.O=C(O)C(=O)O | Phenotype: Inactive; Curve_Description: None | Phenotype: Inactive; Curve_Description: None
31 |  |  | Nc1nccc(-c2c(-c3ccc(F)cc3)ncn2CCCN2CCOCC2)n1 | Phenotype: Inactive; Curve_Description: None | Phenotype: Inactive; Curve_Description: None
32 |  |  | Clc1ccc(CNc2nccc(-c3cnn4ncccc34)n2)cc1 [GW781673X] | Phenotype: Inactive; Curve_Description: None | Phenotype: Inactive; Curve_Description: None
33 |  | 20.6 | CC(C)=Cc1cccc2c1/C(=N/Nc1ccc(S(N)(=O)=O)cc1)C(=O)N2 [GW396574X] |  | Phenotype: Inactive; Curve_Description: None
34 |  |  | CCN(CC)S(=O)(=O)c1ccc(OC)c(Nc2ncc(-c3ccccc3)o2)c1 [GW572401X] | Phenotype: Inactive; Curve_Description: None | Phenotype: Inactive; Curve_Description: None
35 | 29.1 |  | c1ccc(COc2ccc(Nc3ncnc4ccc(-c5ccco5)cc34)cc2)cc1 [GW284372X] | Phenotype: Inactive; Curve_Description: None | 
36 |  |  | CN1CCC(C(=O)Nc2n[nH]c3nc(-c4ccc(O)cc4)c(Br)cc23)CC1.O=C(O)/C=C\C(=O)O | Phenotype: Inactive; Curve_Description: None | Phenotype: Inactive; Curve_Description: None
37 | 14.6 | 20.6 | Cn1cc(C=C2C(=O)Nc3cccnc32)c2ccccc21 [GW441756X] |  | 
38 |  |  | CN1CCC(n2cnc(-c3ccc(F)cc3)c2-c2ccnc(Nc3ccccc3)n2)CC1 | Phenotype: Inactive; Curve_Description: None | Phenotype: Inactive; Curve_Description: None
39 |  |  | Cl.NS(=O)(=O)c1ccc(N/N=C2\C(=O)Nc3cccc(CCc4ccncc4)c32)cc1 [GW352430A] | Phenotype: Inactive; Curve_Description: None | Phenotype: Inactive; Curve_Description: None
40 |  | 20.6 | CCN(CC)Cc1ccc(Nc2nccc(-c3cnn4ncccc34)n2)cc1 [GW780056X] |  | Phenotype: Inactive; Curve_Description: None
41 | 18.3 | 41.1 | OCc1ccc(-c2nc(-c3ccccn3)c(-c3ccc4c(c3)OCO4)[nH]2)cc1 |  | 
42 |  |  | COc1ccc(-c2nn3ncccc3c2-c2ccnc(Nc3ccc4c(c3)OCCO4)n2)cc1 [GW827106X] | Phenotype: Inactive; Curve_Description: None | Phenotype: Inactive; Curve_Description: None
43 |  |  | COc1cc(Nc2ncc(-c3ccccc3)o2)cc(OC)c1OC [GW627512B] | Phenotype: Inactive; Curve_Description: None | Phenotype: Inactive; Curve_Description: None
44 |  |  | CCn1c(-c2nonc2N)nc2ccncc21 | Phenotype: Inactive; Curve_Description: None | Phenotype: Inactive; Curve_Description: None
45 | 0.58 |  | Cc1cccc(Nc2ncc(-c3ccccc3)o2)c1 [GW632046X] | Phenotype: Inactive; Curve_Description: None | 
46 |  |  | CN(C)CCOc1ccc(-c2cc(-c3ccc4c(c3)CCC4=NO)c(-c3ccncc3)o2)cc1.Cl | Phenotype: Inactive; Curve_Description: None | Phenotype: Inactive; Curve_Description: None
47 |  |  | COc1ccc(COc2ccc(Cc3cnc(N)nc3N)cc2OC)cc1 [GW632580X] | Phenotype: Inactive; Curve_Description: None | Phenotype: Inactive; Curve_Description: None

Row | Compound | AC50 ([1]; read-out: AC50) [µM] | AC50 ([2]; read-out: AC50) [µM] | AC50 [2] | AC50 [1]
48 | NS(=O)(=O)c1cccc(-c2ccc3c(NC(=O)C4CC4)n[nH]c3c2)c1 | 20.6 | 36.6 |  | 
49 | O=C(O)C(F)(F)F.[O-][S+]1CCN(Cc2ccc(-c3ccc4ncnc(Nc5ccc(OCc6cccc(F)c6)c(Cl)c5)c4c3)o2)CC1 [GW576609A] | 18.3 |  | Phenotype: Inactive; Curve_Description: None | 
50 | [O-][S+]1CCN(Cc2ccc(-c3ccc4ncnc(Nc5ccc(OCc6ccccc6)c(Cl)c5)c4c3)o2)CC1 [GW583373A] | 14.6 | 0.0005 |  | 
51 | Cl.[O-][S+]1CCN(Cc2ccc(-c3ccc4ncnc(Nc5ccc(OCc6ccccc6)c(F)c5)c4c3)o2)CC1 [GW576924A] | 16.3 |  | Phenotype: Inactive; Curve_Description: None | 
